The text below walks through data of paper PMC6440634, “Phosphorylation of a serine/proline-rich motif in oxysterol binding protein-related protein 4L (ORP4L) regulates cholesterol and vimentin binding” (PLoS ONE, 2019).

The structures appear in SMILES notation. Changes are numbered by the printed parent chain.

Holding throughout (test): specific radioligand binding in solution, Scatchard
The target of assay [1] is T1, ORP4L (Homo sapiens, UniProt Q969R2).
T1 construct: gene OSBP2; about 116 kDa on SDS-PAGE, dimer by cross-linking; residues S762SPSSPSS769 in ORD
T1 sequence (Q969R2 1-916): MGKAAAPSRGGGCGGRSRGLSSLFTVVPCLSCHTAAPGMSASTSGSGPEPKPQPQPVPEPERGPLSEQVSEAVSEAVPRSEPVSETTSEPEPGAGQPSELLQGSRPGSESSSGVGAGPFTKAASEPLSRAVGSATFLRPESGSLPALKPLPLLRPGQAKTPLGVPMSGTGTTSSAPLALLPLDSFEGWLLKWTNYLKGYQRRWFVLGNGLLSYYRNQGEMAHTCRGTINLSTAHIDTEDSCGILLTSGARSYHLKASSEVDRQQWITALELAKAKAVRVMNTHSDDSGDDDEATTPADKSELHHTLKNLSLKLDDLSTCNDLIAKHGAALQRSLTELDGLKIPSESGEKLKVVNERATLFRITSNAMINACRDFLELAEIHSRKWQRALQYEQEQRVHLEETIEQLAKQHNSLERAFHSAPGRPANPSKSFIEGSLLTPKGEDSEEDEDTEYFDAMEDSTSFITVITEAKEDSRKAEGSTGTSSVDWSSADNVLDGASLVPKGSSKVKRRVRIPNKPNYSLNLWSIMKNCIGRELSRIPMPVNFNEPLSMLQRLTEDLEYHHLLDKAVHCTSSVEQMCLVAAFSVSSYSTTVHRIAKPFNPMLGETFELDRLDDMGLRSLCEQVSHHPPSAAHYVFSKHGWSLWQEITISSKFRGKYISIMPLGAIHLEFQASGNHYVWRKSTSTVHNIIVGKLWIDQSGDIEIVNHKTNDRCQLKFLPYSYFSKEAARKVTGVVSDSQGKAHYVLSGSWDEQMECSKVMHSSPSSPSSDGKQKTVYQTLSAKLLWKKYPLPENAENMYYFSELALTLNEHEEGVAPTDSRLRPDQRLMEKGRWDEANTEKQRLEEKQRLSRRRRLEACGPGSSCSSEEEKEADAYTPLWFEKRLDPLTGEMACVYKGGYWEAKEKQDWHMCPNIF

The target in assay [2] is T2, ORP4L (Homo sapiens, UniProt Q969R2, S762A/S763A/S766A/S768A).
T2 construct: gene OSBP2; about 116 kDa on SDS-PAGE, dimer by cross-linking; residues S762SPSSPSS769 in ORD
T2 sequence (Q969R2 1-916 S762A/S763A/S766A/S768A): T1 sequence (Q969R2 1-916) with S762A, S763A, S766A, S768A

Assay [3] has as its target T3, ORP4L (Homo sapiens, UniProt Q969R2, S762D/S763D/S766D/S768D).
T3 construct: gene OSBP2; about 116 kDa on SDS-PAGE, dimer by cross-linking; residues S762SPSSPSS769 in ORD
T3 sequence (Q969R2 1-916 S762D/S763D/S766D/S768D): T1 sequence (Q969R2 1-916) with S762D, S763D, S766D, S768D

With `C[C@H](CCCC(C)(C)O)[C@H]1CC[C@H]2[C@@H]3CC=C4C[C@@H](O)CC[C@]4(C)[C@H]3CC[C@]12C` [25OH], the Kd in assay [1] stood at 45 ± 12 nM; in assay [2], 62 ± 28 nM; in assay [3] it was 60 ± 18 nM.

`CC(C)CCC[C@@H](C)[C@H]1CC[C@H]2[C@@H]3CC=C4C[C@@H](O)CC[C@]4(C)[C@H]3CC[C@]12C` [cholesterol]: the Kd in assay [1] is 160 ± 40 nM; in assay [2], 255 ± 90 nM; in assay [3], 144 ± 43 nM.
